The test system of data set [1] is rat adipocytes. The experiment in a line: In vitro lipolysis assay (antilipolytic activity in rat adipocytes). The class given is cell-based. Conditions: Rattus norvegicus, Adipocyte, 1 h; norepinephrine-stimulated lipolysis, glycerol assayed, 60 min; read-out: Lipo ec50. On the procedure: Determination of Antilipolytic Activity in Rat Adipocytes
Isolation of Adipocytes from Epididymal Fat Pads
Adipose tissue is removed from anesthetized rats and rinsed twice in incubation medium (2.09 g sodium bicarbonate and 0.04 g EDTA, disodium salt, in 1 L Krebs buffer). Each rat (300-350 g) yields approximately 4 mL of adipose tissue. The adipose tissue (35 mL) is cut into small pieces with scissors and washed with incubation medium (50 mL). The mixture is poured into the barrel of a 50 mL syringe to which is attached a short piece of clamped tubing instead of a needle. The aqueous phase is allowed to drain. A second wash with incubation medium is passed through the syringe. The tissue is added to 50 mL of collagenase solution (collagenase (90 mg), bovine serum albumin (BSA) (500 mg), and 0.1 M calcium chloride solution (1 mL), in incubation medium (50 mL)) in a 1 L bottle. The mixture is shaken in an environmental at 37° C. for about 60 minutes under an atmosphere of 95% oxygen/5% carbon dioxide to effect digestion of the tissue. The dispersed cells are poured through 2 layers of cheese cloth into a 100 mL plastic beaker. The undigested clumps in the cloth are rinsed once with incubation medium (20 mL). The cells in the beaker are centrifuged in 2 plastic tubes for 30 seconds at room temperature at 300 rpm. The aqueous phase is aspirated from beneath the loosely packed layer of floating fat cells and discarded. The adipocytes are gently poured into a 250 mL plastic beaker containing 100 mL of rinse solution (1 g BSA per 100 mL incubation medium). After gentle stirring the centrifugation step is repeated. Another wash with rinse solution follows. The cells are pooled and their volume is estimated with a graduated cylinder. The adipocytes are diluted in twice their volume of assay buffer (incubation medium (120 mL), BSA (1.2 g), pyruvic acid (13 mg)).
The assay is performed in 20 mL plastic scintillation vials and the total assay volume is 4.2 mL. Assay buffer (2.5 mL), diluted adipocytes (1.5 mL), and a solution of the compound to be tested (12.3 μL) adenosine agonist (12.3 μl; varying concentration) is incubated in the environmental shaker for 15 minutes, then the reaction is started with norepinephrine solution (41.2 μL) (10 nM, in a carrier solution containing water (100 mL), BSA (4 mg), and 0.1 M EDTA (20 μL))and adenosine deaminase (1 μg/mL, 41.2 μl). After sixty minutes in the shaker the reaction is terminated by putting the vials on ice. […] The hard lipid layer is removed by aspiration and the aqueous layer is assayed for glycerol (400 μl of sample). The positive control is done in the absence of any adenosine agonist, substituting water in place of the solution to be tested.

The text below walks through data of patent US20030176390A1, “Methods of treating insulin resistance syndrome and diabetes” (priority 2001, published 2003).

Consider `OC[C@H]1C[C@@H](n2cnc3c(N[C@H]4CCN(c5ccc(Br)cn5)C4)ncnc32)[C@H](O)[C@@H]1O` [Example 32, (1R,2S,3R,5R)-3-[6-[1-(5-bromopyridin-2-yl)pyrrolidin-3(S)-ylamino]-purin-9-yl]-5-hydroxymethylcyclopentane-1,2-diol], for which the melting point is 169 to 171 °C. In data set [1], the EC50 worked out at 0.008 µM.
Turning to `OC[C@H]1C[C@@H](n2cnc3c(N[C@H]4CCN(c5ccc(C(F)(F)F)cc5)C4)ncnc32)[C@H](O)[C@@H]1O` [Example 5, (1R,2S,3R,5R)-3-[6-[1-(4-trifluoromethylphenyl)-pyrrolidin-3(S)-ylamino]-purin-9-yl]-5-hydroxymethylcyclopentane-1,2-diol], the melting point lay within 111 to 114 °C. Also, the half-maximal effective concentration (EC50) in data set [1] turned out to be 0.002 µM.
For the compound `COC[C@H]1C[C@@H](n2cnc3c(N[C@H]4CCN(c5ncc(C(F)(F)F)cc5Cl)C4)ncnc32)[C@H](O)[C@@H]1O` [Example 44, (1R,2S,3R,5R)-3-[6-[1-(3-chloro-5-trifluoromethylpyridin-2-yl)pyrrolidin-3(S)-ylamino]-purin-9-yl]-5-methoxymethylcyclopentane-1,2-diol], the melting point is 140 to 143 °C. For the same compound, the EC50 in data set [1] turned out to be 0.226 µM.
Consider `COc1cc(N2CC[C@H](Nc3ncnc4c3ncn4[C@@H]3O[C@H](CO)[C@@H](O)[C@H]3O)C2)ncn1` [Example 20, (2R,3R,4S,5R)-5-hydroxymethyl-2-[6-[1-(6-methoxypyrimidin-4-yl)pyrrolidin-3(S)-ylamino]-purin-9-yl]tetrahydrofuran-3,4-diol], for which the melting point was in the range of 251 to 253 °C. In addition, in data set [1], the EC50 was found to be 0.00137 µM.
Regarding `COC[C@H]1C[C@@H](n2cnc3c(N[C@H]4CCN(c5ccc(C(F)(F)F)cc5)C4)ncnc32)[C@H](O)[C@@H]1O` [Example 54, (1R,2S,3R,5R)-5-methoxymethyl-3-[6-[1-(4-trifluoromethylphenyl)pyrrolidin-3(S)-ylamino]-purin-9-yl]cyclopentane-1,2-diol], the melting point was found to be 128 °C. Besides, the EC50 in data set [1] was determined as 0.0278 µM.
The matching figures for `OC[C@H]1C[C@@H](n2cnc3c(N[C@H]4CCN(c5ccccn5)C4)ncnc32)[C@H](O)[C@@H]1O` [Example 35, (1R,2S,3R,5R)-5-hydroxymethyl-3-[6-[1-(pyridin-2-yl)pyrrolidin-3(S)-ylamino]-purin-9-yl]cyclopentane-1,2-diol]: 110 to 112 °C and 0.048 µM.
In turn, `OC[C@H]1C[C@@H](n2cnc3c(N[C@H]4CCN(c5ccccc5)C4)ncnc32)[C@H](O)[C@@H]1O` [Example 39, (1R,2S,3R,5R)-5-hydroxymethyl-3-[6-[1-(phenyl)-pyrrolidin-3(S)-ylamino]-purin-9-yl]cyclopentane-1,2-diol] registered a melting point of 97 to 99 °C. Besides, the 50% effective concentration (EC50) in data set [1] stood at 0.0176 µM.
`C[C@H]1C[C@@H](n2cnc3c(N[C@H]4CCN(c5ccc(C(F)(F)F)cn5)C4)ncnc32)[C@H](O)[C@@H]1O` [Example 31, (1R,2S,3R,5S)-5-methyl-3-[6-[1-(5-trifluoromethylpyridin-2-yl)pyrrolidin-3(S)-ylamino]-purin-9-yl]cyclopentane-1,2-diol] had a melting point of 114 to 116 °C. In data set [1], the EC50 was determined as 0.247 µM.
In the case of `OC[C@H]1O[C@@H](n2cnc3c(NC4CCN(c5ccc(Cl)nn5)C4)ncnc32)[C@H](O)[C@@H]1O` (stereo partly drawn) [Example 22, (2R,3R,4S,5R)-5-hydroxymethyl-2-[6-[1-(6-chloropyridazin-3-yl)pyrrolidin-3-ylamino]-purin-9-yl]-tetrahydrofuran-3,4-diol], the melting point is 130 °C (dec.). Moreover, the EC50 in data set [1] worked out at 0.00307 µM.
Consider `COC[C@H]1C[C@@H](n2cnc3c(N[C@H]4CCN(c5ccc(Br)cn5)C4)ncnc32)[C@H](O)[C@@H]1O` [Example 52, (1R,2S,3R,5R)-3-[6-[1-(5-bromopyridin-2-yl)pyrrolidin-3(S)-ylamino]-purin-9-yl]-5-methoxymethylcyclopentane-1,2-diol], for which the melting point lay in the range of 110 to 111 °C. Also, in data set [1], the EC50 was determined as 0.017 µM.
`CC[C@H](C)NC(=O)[C@H]1C[C@@H](n2cnc3c(N[C@H]4CCN(c5ccc(C(F)(F)F)cn5)C4)ncnc32)[C@H](O)[C@@H]1O` [Example 61, (1S,2R,3S,4R)-2,3-dihydroxy-4-{6-[1-(5-trifluoromethyl-pyridin-2-yl)-pyrrolidin-3(S)-ylamino]-purin-9-yl}-cyclopentanecarboxylic acid-1(S)-methylpropylamide]: the melting point is 215 °C (dec.). In addition, the EC50 in data set [1] is 0.018 µM.
As to `Cl.Cl.OC[C@H]1C[C@@H](n2cnc3c(N[C@H]4CCNC4)ncnc32)[C@H](O)[C@@H]1O` [Example 26, (1R,2S,3R,5R)-5-hydroxymethyl-3-[6-((3S)-pyrrolidin-3-ylamino)-purin-9-yl]cyclopentane-1,2-diol dihydrochloride], the melting point was 160 °C (dec.). Moreover, the EC50 in data set [1] is 0.178 µM.
Regarding `OC[C@H]1C[C@@H](n2cnc3c(N[C@H]4CCN(c5cccc(Cl)c5)C4)ncnc32)[C@H](O)[C@@H]1O` [Example 57, (1R,2S,3R,5R)-3-[6-[1-(3-chlorophenyl)-pyrrolidin-3(S)-ylamino]-purin-9-yl]-5-hydroxymethylcyclopentane-1,2-diol], the melting point lay in the range of 131 to 133 °C. For the same compound, the concentration giving a half-maximal response (EC50) in data set [1] was found to be 0.0635 µM.
`COC[C@H]1C[C@@H](n2cnc3c(N[C@H]4CCN(c5cccc(Cl)c5)C4)ncnc32)[C@H](O)[C@@H]1O` [Example 56, (1R,2S,3R,5R)-3-[6-[1-(3-chlorophenyl)-pyrrolidin-3(S)-ylamino]-purin-9-yl]-5-methoxymethylcyclopentane-1,2-diol] showed a melting point of 127 to 130 °C. Also, the EC50 in data set [1] turned out to be 0.0024 µM.

The term EC50 denotes the concentration at which the effect is half-maximal. Usually melting point stands for the temperature of the solid-liquid transition.
